Source: patent US8314215B2, “Mild chemically cleavable linker system” (The Board of Trustees of the Leland Stanford Junior …, priority 2006, dated 2012)

Biological target: T1, carbamoyl-phosphate synthase 1 (Mus musculus, UniProt Q8C196)
T1 construct: from tissue; host or cells: mouse liver extract
T1 sequence (Q8C196 39-1500): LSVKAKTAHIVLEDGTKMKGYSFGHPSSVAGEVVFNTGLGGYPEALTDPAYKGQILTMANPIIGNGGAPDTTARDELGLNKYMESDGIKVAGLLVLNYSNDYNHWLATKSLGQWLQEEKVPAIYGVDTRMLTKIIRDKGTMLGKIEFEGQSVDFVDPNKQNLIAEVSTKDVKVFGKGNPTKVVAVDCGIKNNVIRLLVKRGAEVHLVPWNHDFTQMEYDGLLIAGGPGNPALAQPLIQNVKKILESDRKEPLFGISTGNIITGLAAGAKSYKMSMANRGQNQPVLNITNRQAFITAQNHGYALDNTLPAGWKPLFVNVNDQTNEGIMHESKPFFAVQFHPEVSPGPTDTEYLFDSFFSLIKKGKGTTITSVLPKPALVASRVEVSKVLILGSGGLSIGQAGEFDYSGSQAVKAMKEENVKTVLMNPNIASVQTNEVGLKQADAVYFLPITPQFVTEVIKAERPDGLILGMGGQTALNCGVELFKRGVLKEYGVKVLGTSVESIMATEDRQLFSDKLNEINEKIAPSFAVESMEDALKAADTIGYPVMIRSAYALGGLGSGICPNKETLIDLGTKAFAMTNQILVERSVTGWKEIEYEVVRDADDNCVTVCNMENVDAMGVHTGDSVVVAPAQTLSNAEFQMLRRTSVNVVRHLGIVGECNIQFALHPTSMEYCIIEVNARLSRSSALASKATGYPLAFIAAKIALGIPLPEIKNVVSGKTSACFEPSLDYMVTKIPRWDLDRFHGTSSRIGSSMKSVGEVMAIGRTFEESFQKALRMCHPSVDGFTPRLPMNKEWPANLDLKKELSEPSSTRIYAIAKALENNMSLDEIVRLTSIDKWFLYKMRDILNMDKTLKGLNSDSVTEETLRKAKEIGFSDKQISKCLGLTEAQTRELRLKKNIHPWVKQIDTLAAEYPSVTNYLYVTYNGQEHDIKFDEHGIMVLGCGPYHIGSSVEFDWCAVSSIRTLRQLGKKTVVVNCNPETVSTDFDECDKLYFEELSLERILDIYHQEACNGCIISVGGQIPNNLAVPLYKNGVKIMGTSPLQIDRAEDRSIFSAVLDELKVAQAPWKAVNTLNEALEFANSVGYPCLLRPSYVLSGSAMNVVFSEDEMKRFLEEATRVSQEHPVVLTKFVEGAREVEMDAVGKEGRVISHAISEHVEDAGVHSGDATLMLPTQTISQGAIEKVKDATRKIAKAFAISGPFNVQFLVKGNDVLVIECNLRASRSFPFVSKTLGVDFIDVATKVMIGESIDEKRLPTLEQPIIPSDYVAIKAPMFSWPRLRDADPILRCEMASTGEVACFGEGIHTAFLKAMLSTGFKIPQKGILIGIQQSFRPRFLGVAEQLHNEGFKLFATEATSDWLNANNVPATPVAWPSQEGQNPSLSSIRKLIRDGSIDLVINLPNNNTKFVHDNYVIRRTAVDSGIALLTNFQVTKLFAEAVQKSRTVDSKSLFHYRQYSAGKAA
Assay: LC/MS/MS identification of proteins from mouse liver extracts labeled with MTS-I-49
Format: biochemical
Text: (1991) Irreversible inhibition of serine proteases by peptide derivatives of (alpha-aminoalkyl)phosphonate diphenyl esters. Biochemistry 30, 485-493). However, it has not been used for any proteomic applications. We used MTS-I-49 to label mouse liver extracts and analyze the labeled sample by both SDS-PAGE (FIG. 5B) and by direct chemical cleavage or on bead digestion.
After enrichment on immobilized avidin, each of the three labeled proteomes (FIG. 5b) was divided into two aliquots. One was prepared for LC-MS/MS analysis by “on bead” digestion, while the other was chemically eluted and digested “in solution.” Proteins identified in each tissue lysate are listed with their accession number and theoretical molecular weight (MW). To compare both approaches, the number of identified peptides and percentage of amino acid sequence coverage is listed for each protein.
Proteins in the above Table were identified by LC/MS/MS analysis of on bead digested or chemically eluted proteins from mouse liver extracts labeled with MTS-I-49. […] BLAST database searching identified it as liver carboxylesterase 4. A number of additional endogenously biotinylated proteins were identified in the on-bead digested sample.

C[C@H](NC(=O)c1ccc(N=Nc2cc(CCNC(=O)CCCC[C@@H]3SC[C@@H]4NC(=O)N[C@@H]43)ccc2O)cc1)C(=O)N[C@@H](C)C(=O)NC(Cc1ccccc1)P(=O)(Oc1ccccc1)Oc1ccccc1 (stereo partly drawn) [MTS-I-49]
Chemical Cleavage, number of identified peptides (chemically eluted, digested in solution): 0 | On Bead Digestion, amino acid sequence coverage (on bead digestion): 2 (2%) | On Bead Digestion, number of identified peptides (on bead digestion): 2 (2%)
